# pEC50: −log10 of the molar value.
# Target: T1, hSTING (Homo sapiens, UniProt Q86WV6, G230A/H232R/R293Q/R71H)
# T1 construct: host or cells: THP1-Dual KO-IFNAR2 cells
# Assay: STING reporter assay (luciferase) in THP1-Dual KO-IFNAR2 cells stimulated with 2′3′cGAMP
# Type: cell-based
# Conditions: 15 μM 2′3′cGAMP transfected, 24 h, luciferase reporter activity
# Procedure: STING pathway activation by the compounds described herein was measured using THP1-Dual™ cells (KO-IFNAR2).
# THP1-Dual™ KO-IFNAR2 Cells (obtained from invivogen) were maintained in RPMI, 10% FCS, 5 ml P/S, 2 mM L-glut, 10 mM Hepes, and 1 mM sodium pyruvate. Compounds were spotted in empty 384 well tissue culture plates (Greiner 781182) by Echo for a final concentration of 0.0017-100 μM. Cells were plated into the TC plates at 40 μL per well, 2×10E6 cells/mL. For activation with STING ligand, 2′3′cGAMP (MW 718.38, obtained from Invivogen), was prepared in Optimem media.
# The following solutions were prepared for each 1×384 plate: • Solution A: 2 mL Optimem with one of the following stimuli: • 60 μL of 10 mM 2′3′cGAMP→150 μM stock • Solution B: 2 mL Optimem with 60 μL Lipofectamine 2000→Incubate 5 min at RT
# 2 mL of solution A and 2 ml Solution B was mixed and incubated for 20 min at room temperature (RT). 20 μL of transfection solution (A+B) was added on top of the plated cells, with a final 2′3′cGAMP concentration of 15 μM. The plates were then centrifuged immediately at 340 g for 1 minute, after which they were incubated at 37° C., 5% CO2, >98% humidity for 24 h. Luciferase reporter activity was then measured. EC50 values were calculated by using standard methods known in the art.
# Luciferase reporter assay: 10 μL of supernatant from the assay was transferred to white 384-plate with flat bottom and squared wells. One pouch of QUANTI-Luc™ Plus was dissolved in 25 mL of water. 100 μL of QLC Stabilizer per 25 mL of QUANTI-Luc™ Plus solution was added. 50 μL of QUANTI-Luc™ Plus/QLC solution per well was then added. Luminescence was measured on a Platereader (e.g., Spectramax I3X (Molecular Devices GF3637001)).
# Luciferase reporter activity was then measured. EC50 values were calculated by using standard methods known in the art.
# T1 sequence (Q86WV6 whole entry R71H/G230A/H232R/R293Q): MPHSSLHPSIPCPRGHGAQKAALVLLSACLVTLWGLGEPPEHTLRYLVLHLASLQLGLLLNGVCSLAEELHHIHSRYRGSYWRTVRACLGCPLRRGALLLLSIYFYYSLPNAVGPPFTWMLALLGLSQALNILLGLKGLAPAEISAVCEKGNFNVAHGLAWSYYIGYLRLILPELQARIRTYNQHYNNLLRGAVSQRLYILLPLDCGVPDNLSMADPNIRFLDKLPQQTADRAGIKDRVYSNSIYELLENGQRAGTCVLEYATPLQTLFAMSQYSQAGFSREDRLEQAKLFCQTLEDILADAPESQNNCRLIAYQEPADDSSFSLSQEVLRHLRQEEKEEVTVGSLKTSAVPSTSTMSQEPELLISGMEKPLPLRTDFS
row,SMILES,pEC50
1,"O=C(CCn1cccn1)Nc1c[nH]c2ccc(-c3cnn(-c4ccc(C(F)(F)F)cc4)c3)cc12 [Compound 143, 3-(1H-pyrazol-1-yl)-N-(5-(1-(4-(trifluoromethyl)phenyl)-1H-pyrazol-4-yl)-1H-indol-3-yl)propanamide]",6.00 to 6.70
2,"O=C(Cc1ncc(F)cn1)Nc1c[nH]c2ccc(-c3cnn(-c4ccc(C(F)(F)F)cc4)c3)cc12 [Compound 145, 2-(5-fluoropyrimidin-2-yl)-N-(5-(1-(4-(trifluoromethyl)phenyl)-1H-pyrazol-4-yl)-1H-indol-3-yl)acetamide]",6.00 to 6.70
3,"O=C(CCc1nccs1)Nc1c[nH]c2ccc(-c3cnn(-c4ccc(C(F)(F)F)cc4)c3)cc12 [Compound 148, 3-(thiazol-2-yl)-N-(5-(1-(4-(trifluoromethyl)phenyl)-1H-pyrazol-4-yl)-1H-indol-3-yl)propanamide]",6.00 to 6.70
4,"O=C(Nc1c[nH]c2ccc(-c3cnn(-c4ccc(C(F)(F)F)cc4)c3)cc12)[C@@H](O)C1CCCCC1 [Compound 152, (S)-2-cyclohexyl-2-hydroxy-N-(5-(1-(4-(trifluoromethyl)phenyl)-1H-pyrazol-4-yl)-1H-indol-3-yl)acetamide]",5.30 to 6.00
5,"Cn1cnnc1CCC(=O)Nc1c[nH]c2ccc(-c3cnn(-c4ccc(C(F)(F)F)cc4)c3)cc12 [Compound 153, 3-(4-methyl-4H-1,2,4-triazol-3-yl)-N-(5-(1-(4-(trifluoromethyl)phenyl)-1H-pyrazol-4-yl)-1H-indol-3-yl)propanamide]",5.30 to 6.00
6,"O=C(CCN1CCCC1=O)Nc1c[nH]c2ccc(-c3cnn(-c4ccc(C(F)(F)F)cc4)c3)cc12 [Compound 155, 3-(2-oxopyrrolidin-1-yl)-N-(5-(1-(4-(trifluoromethyl)phenyl)-1H-pyrazol-4-yl)-1H-indol-3-yl)propanamide]",6.00 to 6.70
7,"O=C(CC1CC(F)(F)C1)Nc1c[nH]c2ccc(-c3cnn(-c4ccc(C(F)(F)F)cc4)c3)cc12 [Compound 157, 2-(3,3-difluorocyclobutyl)-N-(5-(1-(4-(trifluoromethyl)phenyl)-1H-pyrazol-4-yl)-1H-indol-3-yl)acetamide]",6.00 to 6.70
8,"O=C(CS(=O)(=O)C1CC1)Nc1c[nH]c2ccc(-c3cnn(-c4ccc(C(F)(F)F)cc4)c3)cc12 [Compound 158, 2-(cyclopropylsulfonyl)-N-(5-(1-(4-(trifluoromethyl)phenyl)-1H-pyrazol-4-yl)-1H-indol-3-yl)acetamide]",6.00 to 6.70
9,"O=C(CCn1cncn1)Nc1c[nH]c2ccc(-c3cnn(-c4ccc(C(F)(F)F)cc4)c3)cc12 [Compound 159, 3-(1H-1,2,4-triazol-1-yl)-N-(5-(1-(4-(trifluoromethyl)phenyl)-1H-pyrazol-4-yl)-1H-indol-3-yl)propanamide]",6.00 to 6.70
10,"Cc1noc(C)c1CC(=O)Nc1c[nH]c2ccc(-c3cnn(-c4ccc(C(F)(F)F)cc4)c3)cc12 [Compound 160, 2-(3,5-dimethylisoxazol-4-yl)-N-(5-(1-(4-(trifluoromethyl)phenyl)-1H-pyrazol-4-yl)-1H-indol-3-yl)acetamide]",5.30 to 6.00
11,"O=C(CN1CCOC1=O)Nc1c[nH]c2ccc(-c3cnn(-c4ccc(C(F)(F)F)cc4)c3)cc12 [Compound 161, 2-(2-oxooxazolidin-3-yl)-N-(5-(1-(4-(trifluoromethyl)phenyl)-1H-pyrazol-4-yl)-1H-indol-3-yl)acetamide]",6.00 to 6.70
12,"O=C(CC1(O)CCC1)Nc1c[nH]c2ccc(-c3cnn(-c4ccc(C(F)(F)F)cc4)c3)cc12 [Compound 162, 2-(1-hydroxycyclobutyl)-N-(5-(1-(4-(trifluoromethyl)phenyl)-1H-pyrazol-4-yl)-1H-indol-3yl)acetamide]",6.00 to 6.70
13,"COC1(CC(=O)Nc2c[nH]c3ccc(-c4cnn(-c5ccc(C(F)(F)F)cc5)c4)cc23)CCC1 [Compound 163, 2-(1-methoxycyclobutyl)-N-(5-(1-(4-(trifluoromethyl)phenyl)-1H-pyrazol-4-yl)-1H-indol-3-yl)acetamide]",6.00 to 6.70
14,"Cc1nc(CC(=O)Nc2c[nH]c3ccc(-c4cnn(-c5ccc(C(F)(F)F)cc5)c4)cc23)cs1 [Compound 165, 2-(2-methylthiazol-4-yl)-N-(5-(1-(4-(trifluoromethyl)phenyl)-1H-pyrazol-4-yl)-1H-indol-3-yl)acetamide]",6.00 to 6.70
15,"O=C(CCN1CCOC1=O)Nc1c[nH]c2ccc(-c3cnn(-c4ccc(C(F)(F)F)cc4)c3)cc12 [Compound 167, 3-(2-oxooxazolidin-3-yl)-N-(5-(1-(4-(trifluoromethyl)phenyl)-1H-pyrazol-4-yl)-1H-indol-3-yl)propanamide]",6.00 to 6.70

# Next, values leading:
row,pEC50,SMILES
1,6.00 to 6.70,"Cc1cc(CC(=O)Nc2c[nH]c3ccc(-c4cnn(-c5ccc(C(F)(F)F)cc5)c4)cc23)on1 [Compound 144, 2-(3-methylisoxazol-5-yl)-N-(5-(1-(4-(trifluoromethyl)phenyl)-1H-pyrazol-4-yl)-1H-indol-3-yl)acetamide]"
2,6.00 to 6.70,"Cn1cc(CC(=O)Nc2c[nH]c3ccc(-c4cnn(-c5ccc(C(F)(F)F)cc5)c4)cc23)cn1 [Compound 146, 2-(1-methyl-1H-pyrazol-4-yl)-N-(5-(1-(4-(trifluoromethyl)phenyl)-1H-pyrazol-4-yl)-1H-indol-3-yl)acetamide]"
3,6.00 to 6.70,"O=C(CCc1ncccn1)Nc1c[nH]c2ccc(-c3cnn(-c4ccc(C(F)(F)F)cc4)c3)cc12 [Compound 147, 3-(pyrimidin-2-yl)-N-(5-(1-(4-(trifluoromethyl)phenyl)-1H-pyrazol-4-yl)-1H-indol-3-yl)propanamide]"
4,4.00 to 5.30,"O=C(Cc1ncc[nH]1)Nc1c[nH]c2ccc(-c3cnn(-c4ccc(C(F)(F)F)cc4)c3)cc12 [Compound 149, 2-(1H-imidazol-2-yl)-N-(5(1-(4-(trifluoromethyl)phenyl)-1H-pyrazol-4-yl)-1H-indol-3-yl)acetamide]"
5,5.30 to 6.00,"Cc1nc(CC(=O)Nc2c[nH]c3ccc(-c4cnn(-c5ccc(C(F)(F)F)cc5)c4)cc23)n[nH]1 [Compound 150, 2-(5-methyl-1H-1,2,4-triazol-3-yl)-N-(5-(1-(4-(trifluoromethyl)phenyl)-1H-pyrazol-4-yl)-1H-indol-3-yl)acetamide]"
6,5.30 to 6.00,"NC1(CC(=O)Nc2c[nH]c3ccc(-c4cnn(-c5ccc(C(F)(F)F)cc5)c4)cc23)CCCCC1 [Compound 151, 2-(1-aminocyclohexyl)-N-(5-(1-(4-(trifluoromethyl)phenyl)-1H-pyrazol-4-yl)-1H-indol-3-yl)acetamide]"
7,5.30 to 6.00,"O=C(Nc1c[nH]c2ccc(-c3cnn(-c4ccc(C(F)(F)F)cc4)c3)cc12)C(O)c1ccccc1 (centres unmarked) [Compound 154, 2-hydroxy-2-phenyl-N-(5-(1-(4-(trifluoromethyl)phenyl)-1H-pyrazol-4-yl)-1H-indol-3-yl)acetamide]"
8,5.30 to 6.00,"C[C@H](C(=O)Nc1c[nH]c2ccc(-c3cnn(-c4ccc(C(F)(F)F)cc4)c3)cc12)N1CCCC1=O [Compound 156, (R)-2-(2-oxopyrrolidin-1-yl)-N-(5-(1-(4-(trifluoromethyl)phenyl)-1H-pyrazol-4-yl)-1H-indol-3-yl)propanamide]"
9,5.30 to 6.00,"O=C(Cn1cncn1)Nc1c[nH]c2ccc(-c3cnn(-c4ccc(C(F)(F)F)cc4)c3)cc12 [Compound 164, 2-(1H-1,2,4-triazol-1-yl)-N-(5-(1-(4-(trifluoromethyl)phenyl)-1H-pyrazol-4-yl)-1H-indol-3yl)acetamide]"
10,5.30 to 6.00,"O=C(CN1CCCC1=O)Nc1c[nH]c2ccc(-c3cnn(-c4ccc(C(F)(F)F)cc4)c3)cc12 [Compound 166, 2-(2-oxopyrrolidin-1-yl)-N-(5-(1-(4-(trifluoromethyl)phenyl)-1H-pyrazol-4-yl)-1H-indol-3-yl)acetamide]"
11,6.00 to 6.70,"Cn1ccc(CC(=O)Nc2c[nH]c3ccc(-c4cnn(-c5ccc(C(F)(F)F)cc5)c4)cc23)n1 [Compound 168, 2-(1-methyl-1H-pyrazol-3-yl)-N-(5-(1-(4-(trifluoromethyl)phenyl)-1H-pyrazol-4-yl)-1H-indol-3-yl)acetamide]"

# Source: US20220024906A1, “COMPOUNDS AND COMPOSITIONS FOR TREATING CONDITIONS ASSOCIATED WITH STING ACTIVITY” (IFM Due, Inc., priority 2020, published 2022)
